{"source": "patent US10767187B2", "about": "(The State of Israel, Ministry of Agriculture & Rural …, priority 2016, dated 2020)", "key": {"MdPh-4′-OGT [1]": {"target": "T1, MdPh-4′-OGT (Malus domestica, UniProt A7MAS5)", "T1 construct": "made in house; host or cells: E. coli BL21 (DE3)", "T1 sequence (A7MAS5 1-481)": "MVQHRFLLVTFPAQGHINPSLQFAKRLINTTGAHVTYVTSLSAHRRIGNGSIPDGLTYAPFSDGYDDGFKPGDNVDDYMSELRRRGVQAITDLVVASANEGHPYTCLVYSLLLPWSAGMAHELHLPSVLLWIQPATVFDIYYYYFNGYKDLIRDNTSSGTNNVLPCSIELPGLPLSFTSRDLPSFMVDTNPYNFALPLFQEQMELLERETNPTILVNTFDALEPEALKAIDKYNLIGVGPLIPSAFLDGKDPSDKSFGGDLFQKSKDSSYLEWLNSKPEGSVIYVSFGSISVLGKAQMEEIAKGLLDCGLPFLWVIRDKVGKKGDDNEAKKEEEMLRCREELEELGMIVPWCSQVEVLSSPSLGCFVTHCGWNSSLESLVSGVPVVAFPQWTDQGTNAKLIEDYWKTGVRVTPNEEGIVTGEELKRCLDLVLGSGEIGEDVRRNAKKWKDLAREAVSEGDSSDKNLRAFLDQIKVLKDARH", "assay": "Substrate specificity, sugar donor and cation dependence of purified recombinant MdPh-4′-OGT", "type": "biochemical, Malus x domestica", "conditions": "50 μM substrate, 2 mM UDP-glucose, 500 ng enzyme, 1 hour, pH 7.5; LC-MS", "method": "Substrates analyzed are indicated.\n(§1) Reactions were performed at 30° C. for 60 minutes and terminated by addition of 10 μL of 10% TCA (v/v). Two microliters of the reaction products were used for analysis and identification by LC-UV-MS. All assay series were carried out at least in triplicate.\nThe analytical column was a Zorbax Extend-C18 Rapid Resolution HT column (2.1×50.0 mm, 1.8 μm, Agilent Technologies, Waldbronn, Germany). The gradient elution mobile phase consisted of H2O with 0.1% (v/v) formic acid (eluent A) and acetonitrile containing 0.1% (v/v) formic acid (eluent B). The column was equilibrated with 10% B for 1.5 minutes. […] The flow rate of the mobile phase was 0.3 ml/min and the column oven temperature was 40° C. Eluting compounds were subjected to a dual-sprayer orthogonal ESI source, with one sprayer for analytical flow and one for the reference compound (Agilent Technologies, Santa Clara, USA). The ESI source was operated in negative mode with the following settings: gas temp of 300° C. with a flow of 8 L/min and nebulizer set to 35 psig. VCap set to 3000 V, the fragmentor to −140 V and the skimmer to 65 V. Scan mode of the mass detector was applied (100-1700 m/z) with a rate of 1 spectra/sec. The [M-H] ions of target compounds were detected using the ‘find compound by formula’ function and analyzed by Masshunter qualitative and quantitative analysis software version B.07.00 (Agilent technologies). Compounds were identified by comparison of exact mass and retention time to purchased standards."}, "Malus Ph-2′-OGT": {"tested_on": "Malus Ph-2′-OGT", "assay": "Km for phloretin of Malus Ph-2′-OGT (literature) compared with MdPh-4′-OGT", "type": "biochemical", "conditions": "Gosch C. et al. (2010)"}, "MdPGT1": {"target": "MdPGT1 (Malus domestica, UniProt B3TKC8)", "conditions": "Jugde et al. (2008)"}, "MdPh-4′-OGT [2]": {"target": "T1, MdPh-4′-OGT", "assay": "Kinetic parameters of His-tag purified recombinant MdPh-4′-OGT (standard glucosyltransferase enzyme assay, LC-MS)", "type": "biochemical, Malus x domestica", "method": "as §1\nThe UPLC-MS analysis was carried out on an Agilent 1290 Infinity series liquid chromatograph coupled with an Agilent 1290 Infinity DAD and Agilent 6224 Accurate Mass Time of Flight mass spectrometer (MS) (Agilent Technologies, Santa Clara, USA). The analytical column was a Zorbax Extend-C18 Rapid Resolution HT column (2.1×50.0 mm, 1.8 μm, Agilent Technologies, Waldbronn, Germany). The gradient elution mobile phase consisted of H2O with 0.1% (v/v) formic acid (eluent A) and acetonitrile containing 0.1% (v/v) formic acid (eluent B). The column was equilibrated with 10% B for 1.5 minutes. Eluent B was then increased to 95% till 12 minutes, and restored to 10% by 15 minutes. The flow rate of the mobile phase was 0.3 ml/min and the column oven temperature was 40° C. Eluting compounds were subjected to a dual-sprayer orthogonal ESI source, with one sprayer for analytical flow and one for the reference compound (Agilent Technologies, Santa Clara, USA). The ESI source was operated in negative mode with the following settings: gas temp of 300° C. with a flow of 8 L/min and nebulizer set to 35 psig. VCap set to 3000 V, the fragmentor to −140 V and the skimmer to 65 V. Scan mode of the mass detector was applied (100-1700 m/z) with a rate of 1 spectra/sec. The [M-H] ions of target compounds were detected using the ‘find compound by formula’ function and analyzed by Masshunter qualitative and quantitative analysis software version B.07.00 (Agilent technologies). Compounds were identified by comparison of exact mass and retention time to purchased standards."}, "MdPh-4′-OGT [3]": {"target": "T1, MdPh-4′-OGT", "assay": "pH and temperature optima of MdPh-4′-OGT activity with phloretin and UDP-glucose", "type": "biochemical, Malus x domestica", "method": "as §1\nAll data included represent an average of at least three independent experiments. Determination of the pH optima within the range of 4.0-10.0 by mixing the stock buffer of 0.5 M citric acid and 1 M dibasic sodium phosphate solutions (for pH 4.0-7.0) and Tris-HCl (for pH 8.0-10.0), and the temperature optima within the range of 20° C.-45° C."}}}
{"molecule": "O=C1C[C@@H](c2ccc(O)cc2)Oc2cc(O)cc(O)c21", "note": "[naringenin]", "values": [{"measurement": "Activity / product formation with the compound as acceptor substrate", "setting": "MdPh-4′-OGT [1]", "value": "formation of the corresponding naringenin-7-O-glucoside"}]}
{"molecule": "O=C(CCc1ccc(O)cc1)c1c(O)cc(O)cc1O", "note": "[Phloretin, 3-(4-hydroxyphenyl)-1-(2,4,6-trihydroxyphenyl)-1-propanone]", "values": [{"measurement": "Km for phloretin, times higher than with MdPh-4′-OGT", "setting": "Malus Ph-2′-OGT", "value": 3, "unit": "times"}, {"measurement": "Km for phloretin, times lower than with MdPh-4′-OGT", "setting": "MdPGT1", "value": 41, "unit": "times"}, {"measurement": "Activity / product formation with the compound as acceptor substrate", "setting": "MdPh-4′-OGT [1]", "value": "highest activity"}, {"measurement": "kcat", "setting": "MdPh-4′-OGT [2]; named substrate varied, co-substrate fixed", "value": "9.94 ± 1.23 s^−1 (×10^−2)"}, {"measurement": "Vmax", "setting": "MdPh-4′-OGT [2]; named substrate varied, co-substrate fixed, 500 ng enzyme", "value": "1.86 ± 0.30", "unit": "pkat μg^−1 protein"}, {"measurement": "Vmax", "setting": "MdPh-4′-OGT [2]; named substrate varied, co-substrate fixed, 500 ng enzyme, listed as phloretin", "value": "1.86±0.30", "unit": "pkat μg^−1 protein"}, {"measurement": "Km", "setting": "MdPh-4′-OGT [2]; named substrate varied: phloretin 0.5-500 μM at 2 mM UDP-glucose, UDP-glucose 0.01-50 mM at 30 μM phloretin, 500 ng enzyme", "value": "26.1 ± 6.97", "unit": "µM"}]}
{"molecule": "O=C(O)/C=C/c1ccc(O)cc1", "note": "[4-coumaric acid]", "values": [{"measurement": "Activity / product formation with the compound as acceptor substrate", "setting": "MdPh-4′-OGT [1]", "value": "no products were detected"}]}
{"molecule": "O=C(/C=C/c1ccc(O)c(O)c1)c1ccc(O)cc1O", "note": "[butein]", "values": [{"measurement": "Activity / product formation with the compound as acceptor substrate", "setting": "MdPh-4′-OGT [1]", "value": "production of the corresponding O-glucoside"}]}
{"molecule": "O=C(CCc1ccc(O)cc1)c1c(O)cc(O[C@@H]2O[C@H](CO)[C@@H](O)[C@H](O)[C@H]2O)cc1O", "note": "[trilobatin, 1-Propanone, 1-(4-(beta-D-glucopyranosyloxy)-2,6-dihydroxyphenyl)-3-(4-hydroxyphenyl)]", "values": [{"measurement": "Activity / product formation with the compound as acceptor substrate", "setting": "MdPh-4′-OGT [1]", "value": "production of the corresponding di-O-glucosides"}]}
{"molecule": "O=c1c(O)c(-c2ccc(O)c(O)c2)oc2cc(O)cc(O)c12", "note": "[quercetin]", "values": [{"measurement": "Activity / product formation with the compound as acceptor substrate", "setting": "MdPh-4′-OGT [1]", "value": "production of three different products"}]}
{"molecule": "O=C(O)/C=C/c1ccc(O)c(O)c1", "note": "[caffeic acid]", "values": [{"measurement": "Activity / product formation with the compound as acceptor substrate", "setting": "MdPh-4′-OGT [1]", "value": "no products were detected"}]}
{"molecule": "MdPh-4′-OGT: His-tagged recombinant apple glycosyltransferase that glycosylates phloretin with UDP-glucose to form trilobatin (protein, listed as Malus domestica, His tag, His-tagged recombinant apple glycosyltransferase that glycosylates phloretin with UDP-glucose to form trilobatin) MVQHRFLLVTFPAQGHINPSLQFAKRLINTTGAHVTYVTSLSAHRRIGNGSIPDGLTYAPFSDGYDDGFKPGDNVDDYMSELRRRGVQAITDLVVASANEGHPYTCLVYSLLLPWSAGMAHELHLPSVLLWIQPATVFDIYYYYFNGYKDLIRDNTSSGTNNVLPCSIELPGLPLSFTSRDLPSFMVDTNPYNFALPLFQEQMELLERETNPTILVNTFDALEPEALKAIDKYNLIGVGPLIPSAFLDGKDPSDKSFGGDLFQKSKDSSYLEWLNSKPEGSVIYVSFGSISVLGKAQMEEIAKGLLDCGLPFLWVIRDKVGKKGDDNEAKKEEEMLRCREELEELGMIVPWCSQVEVLSSPSLGCFVTHCGWNSSLESLVSGVPVVAFPQWTDQGTNAKLIEDYWKTGVRVTPNEEGIVTGEELKRCLDLVLGSGEIGEDVRRNAKKWKDLAREAVSEGDSSDKNLRAFLDQIKVLKDARH", "values": [{"measurement": "Activation energy", "setting": "MdPh-4′-OGT [3]; calculated from temperature dependence", "value": 4.369, "unit": "kcal/mol"}, {"measurement": "Activity remaining at pH 6.0", "setting": "MdPh-4′-OGT [3]; pH 6.0", "value": 17, "unit": "%"}, {"measurement": "Activity remaining at pH 10.0", "setting": "MdPh-4′-OGT [3]; pH 10.0", "value": "less than 5%"}, {"measurement": "pH of maximum activity", "setting": "MdPh-4′-OGT [3]; pH range 4.0-10.0 tested", "value": 9.0, "unit": "pH"}, {"measurement": "pH range of significant activity", "setting": "MdPh-4′-OGT [3]; pH range 4.0-10.0 tested", "value": "7.0-9.0 pH"}]}
